Legend:
Assay in all cases: relative viability (nuclei count vs DMSO), 5 days (fraction); higher = more cells survive
Metformin + Palbociclib = compound: CN(C)C(=N)NC(=N)N [Metformin] + CC(=O)c1c(C)c2cnc(Nc3ccc(N4CCNCC4)cn3)nc2n(C2CCCC2)c1=O [Palbociclib] (partner 0.5 µM)
How it was run: (§1)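 Lung cancer cell lines were pin-tool dosed in 1536-well plates on the day after seeding, with either a lone drug or a fixed anchor-drug dose plus five library-drug doses (not always all listed) in √10 steps. Nuclei were counted on 4× images after 5 days. Relative viability is the ratio of treated-well to vehicle-well nuclei counts, with each value a median of duplicate plates.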

Apatinib + Palbociclib = compound: N#CC1(c2ccc(NC(=O)c3cccnc3NCc3ccncc3)cc2)CCCC1 [Apatinib] + CC(=O)c1c(C)c2cnc(Nc3ccc(N4CCNCC4)cn3)nc2n(C2CCCC2)c1=O [Palbociclib] (partner 0.5 µM)
How it was run: as §1

Apatinib + Pictilisib = compound: N#CC1(c2ccc(NC(=O)c3cccnc3NCc3ccncc3)cc2)CCCC1 [Apatinib] + CS(=O)(=O)N1CCN(Cc2cc3nc(-c4cccc5[nH]ncc45)nc(N4CCOCC4)c3s2)CC1 [Pictilisib] (partner 1 µM)
How it was run: as §1

Apatinib + Olaparib = compound: N#CC1(c2ccc(NC(=O)c3cccnc3NCc3ccncc3)cc2)CCCC1 [Apatinib] + O=C(c1cc(Cc2n[nH]c(=O)c3ccccc23)ccc1F)N1CCN(C(=O)C2CC2)CC1 [Olaparib] (partner 8 µM)
How it was run: as §1

Cell Line	relative viability (Metformin + Palbociclib; first compound 10 µM)	relative viability (Metformin + Palbociclib; first compound 31.62 µM)	relative viability (Metformin + Palbociclib; first compound 100 µM)	relative viability (Metformin + Palbociclib; first compound 316.23 µM)	relative viability (Metformin + Palbociclib; first compound 1000 µM)	relative viability (Apatinib + Palbociclib; first compound 0.08 µM)	relative viability (Apatinib + Palbociclib; first compound 0.253 µM)	relative viability (Apatinib + Palbociclib; first compound 0.8 µM)	relative viability (Apatinib + Palbociclib; first compound 2.53 µM)	relative viability (Apatinib + Palbociclib; first compound 8 µM)	relative viability (Apatinib + Pictilisib; first compound 0.08 µM)	relative viability (Apatinib + Pictilisib; first compound 0.253 µM)	relative viability (Apatinib + Pictilisib; first compound 0.8 µM)	relative viability (Apatinib + Pictilisib; first compound 2.53 µM)	relative viability (Apatinib + Pictilisib; first compound 8 µM)	relative viability (Apatinib + Olaparib; first compound 0.08 µM)	relative viability (Apatinib + Olaparib; first compound 0.253 µM)	relative viability (Apatinib + Olaparib; first compound 0.8 µM)	relative viability (Apatinib + Olaparib; first compound 2.53 µM)	relative viability (Apatinib + Olaparib; first compound 8 µM)
NCI-H647	0.222	0.436	0.555	0.382	0.417	0.516	0.451	0.336	0.384	0.303	0.492	0.5	0.419	0.349	0.395	0.65	0.794	0.508	0.418	0.305
NCI-H661	0.382	0.391	0.371	0.37	0.365	0.388	0.405	0.417	0.417	0.356	0.273	0.393	0.461	0.381	0.367	0.719	0.726	0.724	0.687	0.641
HCC-366	0.342	0.376	0.309	0.31	0.334	0.484	0.378	0.373	0.334	0.306	0.22	0.184	0.183	0.129	0.111	0.435	0.372	0.249	0.292	0.245
HOP-62	0.372	0.405	0.358	0.387	0.374	0.441	0.366	0.377	0.361	0.219	0.85		0.816	0.758	0.466	0.328	0.396	0.407	0.354	0.282
A549											0.651	0.626	0.421	0.488	0.406	0.329	0.382	0.414	0.367	0.302
HCC-827	0.452	0.501	0.481	0.469	0.615	0.444	0.444	0.402	0.391	0.357	1.04	0.867	0.806	0.777	1.01	0.68	0.628	0.644	0.54	0.561
NCI-H1395	0.504	0.716	0.627	0.508	0.448	0.632	0.687	0.644	0.585	0.602	0.594	0.552	0.64	0.524	0.555	0.485	0.459	0.488	0.452	0.395
SK-MES-1	0.248	0.205	0.266	0.204	0.232	0.335	0.323	0.282	0.292	0.278	0.421	0.3	0.326	0.37	0.32	0.858	0.665	0.627	0.592	0.411
NCI-H2023	0.321	0.341	0.3	0.285	0.237	0.381	0.402	0.354	0.376	0.307	0.269	0.228	0.209	0.209	0.231	0.429	0.508	0.462	0.35	0.395
NCI-H1299											0.882	0.88	0.738	0.646	0.406	1.03	1.01	0.927	0.873	0.638
LCLC-97TM1		0.239	0.321	0.209	0.21	0.238	0.276	0.193	0.204	0.173	0.221	0.147	0.216	0.316	0.143	0.524	0.541	0.353	0.351	0.172
NCI-H1993	0.63	0.701	0.739	0.576	0.67	0.783	0.736	0.597	0.528	0.616	0.874	0.828	0.803	0.731	0.817	0.991	1.05	1.05	0.984	1.04
PC-3 [JPC-3]	0.444	0.466		0.46	0.503		0.555	0.557	0.516	0.53	0.781	0.741	0.594	0.605	0.683		1.12	0.983	1.1	1.06
NCI-H441		0.211	0.165	0.215	0.238	0.234	0.217	0.219	0.211	0.212	0.583	0.566	0.51	0.408	0.32	0.684	0.612	0.505	0.561	0.367
NCI-H322M	0.54	0.495	0.512	0.551	0.488	0.464	0.539	0.499	0.51	0.57	0.513	0.488	0.523	0.627	0.528	0.791	0.759	0.686	0.772	0.805
NCI-H1651	0.556	0.681	0.652	0.519	0.605	0.516	0.522	0.489	0.514	0.459	0.665	0.565	0.494	0.614	0.476	0.192	0.206	0.186	0.17	0.172
EKVX		0.312	0.355	0.384	0.357	0.378	0.482	0.33	0.375	0.378	0.454	0.394	0.435	0.341	0.401	0.801	0.793	0.88	0.734	0.587
CAL-12T	0.579	0.53	0.488	0.384	0.423	0.448	0.56	0.465	0.485	0.367	0.304	0.352	0.393	0.484	0.353	0.723	0.673	0.647	0.638	0.583
NCI-H358	0.114	0.125	0.122	0.138	0.141	0.137	0.133	0.123	0.124	0.123	0.282	0.241	0.283	0.298	0.301	0.681	0.559	0.553	0.569	0.453

Cell Line	relative viability (Metformin + Palbociclib; first compound 10 µM)	relative viability (Metformin + Palbociclib; first compound 31.62 µM)	relative viability (Metformin + Palbociclib; first compound 100 µM)	relative viability (Metformin + Palbociclib; first compound 316.23 µM)	relative viability (Metformin + Palbociclib; first compound 1000 µM)	relative viability (Apatinib + Palbociclib; first compound 0.08 µM)	relative viability (Apatinib + Palbociclib; first compound 0.253 µM)	relative viability (Apatinib + Palbociclib; first compound 0.8 µM)	relative viability (Apatinib + Palbociclib; first compound 2.53 µM)	relative viability (Apatinib + Palbociclib; first compound 8 µM)	relative viability (Apatinib + Pictilisib; first compound 0.08 µM)	relative viability (Apatinib + Pictilisib; first compound 0.253 µM)	relative viability (Apatinib + Pictilisib; first compound 0.8 µM)	relative viability (Apatinib + Pictilisib; first compound 2.53 µM)	relative viability (Apatinib + Pictilisib; first compound 8 µM)	relative viability (Apatinib + Olaparib; first compound 0.08 µM)	relative viability (Apatinib + Olaparib; first compound 0.253 µM)	relative viability (Apatinib + Olaparib; first compound 0.8 µM)	relative viability (Apatinib + Olaparib; first compound 2.53 µM)	relative viability (Apatinib + Olaparib; first compound 8 µM)
PC-14	0.533	0.586	0.547	0.461	0.539	0.555	0.619	0.493	0.611	0.33	0.708	0.837	0.39	0.547	0.55	0.278	0.28	0.222	0.213	0.252
NCI-H650	0.33	0.278	0.385	0.326	0.348	0.316	0.337	0.372	0.272	0.264	0.963	0.878	0.847	0.678	0.654	0.35	0.458	0.439	0.365	0.334
NCI-H2405		0.498	0.485	0.487	0.344	0.528	0.569	0.546	0.513	0.479	0.343	0.458	0.439	0.402	0.35	0.916	0.883	0.837	0.821	0.752
NCI-H2228	0.626	0.782	0.747	0.526	0.946	0.668	0.788	0.776	0.708	0.667	0.338	0.417	0.451	0.355	0.539	0.837	0.754	0.456	0.58	0.323
H3255	0.309	0.35	0.307	0.309	0.321	0.339	0.306	0.319	0.305	0.285	0.448	0.454	0.388	0.436	0.447	0.621	0.627	0.609	0.516	0.455
EBC-1											0.36	0.345	0.299	0.247	0.157	0.76	0.698	0.65	0.588	0.472
NCI-H520	0.271	0.269	0.277	0.22	0.269	0.227	0.238	0.25	0.197	0.214	0.281	0.268	0.301	0.314	0.275	0.375	0.32	0.401	0.28	0.314
SK-LU-1	0.358	0.388	0.365	0.358	0.367	0.372	0.402	0.433	0.381	0.339	0.786	0.637	0.564	0.557	0.453	0.503	0.453	0.435	0.549	0.436
NCI-H1648		0.299	0.296	0.294	0.294	0.273	0.218	0.328	0.273	0.274						0.934	0.854	0.761	0.501	0.433
NCI-H1755	0.411	0.397	0.43	0.433	0.416	0.462	0.464	0.434	0.404	0.422	0.443	0.416	0.447	0.461	0.376	0.846	0.892	0.835	0.876	0.753
EPLC-272H	0.294	0.32	0.339	0.311	0.391	0.284	0.341	0.359	0.336	0.313	0.351	0.331	0.357	0.324	0.349	0.759	0.806	0.822	0.605	0.604
NCI-H522	1.7	1.24	1.06	1.08	1.21	1.03	1.18	1.06	0.928	0.903						0.667	0.644	0.615	0.692	0.584
Calu-6											0.954	0.951	0.813	0.864	0.602	0.618	0.648	0.541	0.426	0.393
SW 900	0.542	0.536		0.497	0.578	0.616	0.548	0.558	0.478	0.435						0.974	0.823	0.842	0.714	0.606
NCI-H596											0.419	0.402	0.353	0.32	0.383	0.822	0.73	0.722	0.65	0.634
NCI-H1703											0.239	0.272	0.198	0.222	0.221	0.512	0.21	0.173	0.159	0.138
NCI-H2342		0.681	0.548	0.522	0.519	0.497	0.524	0.49	0.498	0.572						0.419	0.477	0.457	0.438	0.368
NCI-H1563											0.644	0.656	0.62	0.644	0.632					
IA-LM											0.384	0.266	0.363	0.325	0.287	0.765	0.766	0.769	0.607	0.396

— the supplement of paper PMC10307832
